# PubChem BioAssay AID330 (DTP/NCI, 2004)
# Where “and” joins values, the source holds several entries; their conditions need not be identical. Identical values can stand only once. Inconclusive results and toxic doses are left out.
# System: P388 leukemia ip, CD2F1 mice, survival T/C
# Test: NCI In Vivo Anticancer Drug Screen. Data for tumor model P388 Leukemia (intraperitoneal) in CD2F1 (CDF1) mice
# Conditions: endpoint: median survival time, higher = longer survival
# Outline: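 Mice carrying the transplanted tumor received test compound or vehicle. Survival was recorded in each group, and the value is the treated-group measurement divided by that of the vehicle-treated control group.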
# [1] = dose: 100.0 mg/kg/injection, schedule: Q01DX001 (ip), vehicle: saline with Tween-80
# [2] = dose: 60.0 mg/kg/injection, schedule: Q01DX005 (ip), vehicle: Klucel (hydroxypropylcellulose) (HPC)
# [3] = dose: 120.0 mg/kg/injection, schedule: Q01DX005 (ip), vehicle: Klucel (hydroxypropylcellulose) (HPC)
# [4] = dose: 240.0 mg/kg/injection, schedule: Q01DX005 (ip), vehicle: Klucel (hydroxypropylcellulose) (HPC)
# [5] = dose: 50.0 mg/kg/injection, schedule: Q01DX009 (ip), vehicle: saline with Tween-80
# [6] = dose: 100.0 mg/kg/injection, schedule: Q01DX009 (ip), vehicle: saline with Tween-80
# [7] = dose: 200.0 mg/kg/injection, schedule: Q01DX009 (ip), vehicle: saline with Tween-80
# [8] = dose: 100.0 mg/kg/injection, schedule: Q04DX003 (ip), vehicle: saline with Tween-80
# [9] = dose: 200.0 mg/kg/injection, schedule: Q04DX003 (ip), vehicle: saline with Tween-80
# [10] = dose: 400.0 mg/kg/injection, schedule: Q04DX003 (ip), vehicle: saline with Tween-80
# [11] = dose: 60.0 mg/kg/injection, schedule: Q01DX005 (ip), vehicle: saline with Tween-80
# [12] = dose: 120.0 mg/kg/injection, schedule: Q01DX005 (ip), vehicle: saline with Tween-80
# [13] = dose: 240.0 mg/kg/injection, schedule: Q01DX005 (ip), vehicle: saline with Tween-80
structure (smiles),measurement,setting,value
C[n+]1cccc(NC(=O)c2ccc(NC(=O)c3ccc(C(=O)Nc4ccc(NC(=N)N)cc4)cc3)cc2)c1,T/C,"dose: 4.7 mg/kg/injection, schedule: Q01DX009 (ip), vehicle: saline",110 % of control
same,T/C,"dose: 9.4 mg/kg/injection, schedule: Q01DX009 (ip), vehicle: saline",90 % of control
same,T/C,"dose: 12.5 mg/kg/injection, schedule: Q04DX003 (ip), vehicle: saline",195 % of control
COC(=O)/C=N/NS(=O)(=O)c1cccc(N)c1,T/C,"dose: 12.5 mg/kg/injection, schedule: Q01DX009 (ip), vehicle: water",99 % of control
same,T/C,"dose: 25.0 mg/kg/injection, schedule: Q01DX009 (ip), vehicle: water",107 % of control
same,T/C,"dose: 50.0 mg/kg/injection, schedule: Q01DX009 (ip), vehicle: water",92 % of control
same,T/C,"dose: 100.0 mg/kg/injection, schedule: Q01DX009 (ip), vehicle: water",99 % of control and 102 % of control
same,T/C,"dose: 200.0 mg/kg/injection, schedule: Q01DX009 (ip), vehicle: water",98 % of control
O=C(N/N=C/c1cc(Br)cc(Br)c1O)c1ccccc1,T/C,[1],96 % of control
same,T/C,"dose: 200.0 mg/kg/injection, schedule: Q01DX001 (ip), vehicle: saline with Tween-80",96 % of control
same,T/C,"dose: 400.0 mg/kg/injection, schedule: Q01DX001 (ip), vehicle: saline with Tween-80",92 % of control
Clc1cccc(-c2nc(N3CCOCC3)c3c4c(sc3n2)CCC4)c1,T/C,[2],101 % of control
same,T/C,[3],97 % of control
same,T/C,[4],97 % of control
O=S(=O)(O)c1ccccc1O,T/C,"dose: 25.0 mg/kg/injection, schedule: Q01DX001 (ip), vehicle: saline with Tween-80",111 % of control
same,T/C,"dose: 50.0 mg/kg/injection, schedule: Q01DX001 (ip), vehicle: saline with Tween-80",98 % of control
same,T/C,[1],99 % of control
CC(C)C(NC(=O)OCC[P+](c1ccccc1)(c1ccccc1)c1ccccc1)C(=O)O (configuration not stated),T/C,[5],116 % of control
same,T/C,[6],103 % of control
same,T/C,[7],91 % of control
COC(=O)C(NC(=O)c1ccccc1)C1CCC(Cl)CN1C(=O)OCc1ccccc1 (configuration not stated),T/C,"dose: 8.75 mg/kg/injection, schedule: Q01DX009 (ip), vehicle: Klucel (hydroxypropylcellulose) (HPC)",100 % of control
same,T/C,"dose: 17.5 mg/kg/injection, schedule: Q01DX009 (ip), vehicle: Klucel (hydroxypropylcellulose) (HPC)",100 % of control
same,T/C,"dose: 35.0 mg/kg/injection, schedule: Q01DX009 (ip), vehicle: Klucel (hydroxypropylcellulose) (HPC)",100 % of control
same,T/C,"dose: 70.0 mg/kg/injection, schedule: Q01DX009 (ip), vehicle: Klucel (hydroxypropylcellulose) (HPC)",92 % of control
CCCCN(CCCC)c1cc(C(=O)CCCCCN)c2ccccc2n1,T/C,"dose: 6.25 mg/kg/injection, schedule: Q01DX005 (ip), vehicle: saline",97 % of control
same,T/C,"dose: 12.5 mg/kg/injection, schedule: Q01DX005 (ip), vehicle: saline",90 % of control
same,T/C,"dose: 25.0 mg/kg/injection, schedule: Q01DX005 (ip), vehicle: saline",90 % of control and 94 % of control
CCC(=O)C[N+]12CCN(CC1)CC2,T/C,"dose: 25.0 mg/kg/injection, schedule: Q04DX002 (ip), vehicle: Klucel (hydroxypropylcellulose) (HPC)",105 % of control
same,T/C,"dose: 50.0 mg/kg/injection, schedule: Q04DX002 (ip), vehicle: Klucel (hydroxypropylcellulose) (HPC)",104 % of control
CC(=O)OC1(C)CC(C)C(=O)C(C(O)CC2CC(=O)NC(=O)C2)C1 (configuration not stated),T/C,"dose: 130.0 micrograms/kg/injection, schedule: Q01DX009 (ip), vehicle: saline",111 % of control
same,T/C,"dose: 1300.0 micrograms/kg/injection, schedule: Q04DX003 (ip), vehicle: saline",120 % of control
same,T/C,"dose: 2160.0 micrograms/kg/injection, schedule: Q04DX003 (ip), vehicle: saline",113 % of control
same,T/C,"dose: 3600.0 micrograms/kg/injection, schedule: Q04DX003 (ip), vehicle: saline",113 % of control and 119 % of control
same,T/C,"dose: 6000.0 micrograms/kg/injection, schedule: Q04DX003 (ip), vehicle: saline",118 % of control
CO/C=C1\CC(=O)N(C)C1=O,T/C,[8],110 % of control
same,T/C,[9],97 % of control
same,T/C,[10],97 % of control
COc1cc(C2=[N+](C)CCc3cc4c(cc32)OCO4)cc(OC)c1OC,T/C,"dose: 50.0 mg/kg/injection, schedule: Q01DX005 (ip), vehicle: Klucel (hydroxypropylcellulose) (HPC)",99 % of control
same,T/C,"dose: 100.0 mg/kg/injection, schedule: Q01DX005 (ip), vehicle: Klucel (hydroxypropylcellulose) (HPC)",103 % of control
CC(=O)OCC1(C)NC(=O)c2ccccc2O1 (configuration not stated),T/C,[5],109 % of control (2×) and 120 % of control
same,T/C,[6],114 % of control and 118 % of control
same,T/C,[7],100 % of control
CCCCC(CCC)(CCC)CCN,T/C,"dose: 2.5 mg/kg/injection, schedule: Q01DX009 (ip), vehicle: suspension in saline",104 % of control and 105 % of control
same,T/C,"dose: 5.0 mg/kg/injection, schedule: Q01DX009 (ip), vehicle: suspension in saline",100 % of control and 105 % of control
same,T/C,"dose: 10.0 mg/kg/injection, schedule: Q01DX009 (ip), vehicle: suspension in saline",122 % of control and 97 % of control
same,T/C,"dose: 20.0 mg/kg/injection, schedule: Q01DX009 (ip), vehicle: suspension in saline",106 % of control
COc1cc(/C=N/NC(=O)CN(C)C)cc(OC)c1N(CCCl)CCCl,T/C,"dose: 6.25 mg/kg/injection, schedule: Q01DX009 (ip), vehicle: Klucel (hydroxypropylcellulose) (HPC)",116 % of control
same,T/C,"dose: 25.0 mg/kg/injection, schedule: Q01DX009 (ip), vehicle: Klucel (hydroxypropylcellulose) (HPC)",152 % of control
same,T/C,"dose: 50.0 mg/kg/injection, schedule: Q01DX009 (ip), vehicle: Klucel (hydroxypropylcellulose) (HPC)",186 % of control and 189 % of control
same,T/C,"dose: 100.0 mg/kg/injection, schedule: Q01DX009 (ip), vehicle: Klucel (hydroxypropylcellulose) (HPC)",93 % of control
CCCCNC(=O)OCc1c(COC(=O)NCCCC)c(-c2ccc(Cl)c(Cl)c2)n2c1CCC2,T/C,"dose: 25.0 mg/kg/injection, schedule: Q01DX009 (ip), vehicle: saline with Tween-80",153 % of control and 159 % of control
same,T/C,[5],150 % of control and 171 % of control
same,T/C,[7],163 % of control
CCOC(=O)CSc1cc(O)c2ccccc2c1N=Nc1ccc(C(=O)OCC)cc1,T/C,"dose: 50.0 mg/kg/injection, schedule: Q01DX005 (ip), vehicle: saline with Tween-80",104 % of control
same,T/C,"dose: 100.0 mg/kg/injection, schedule: Q01DX005 (ip), vehicle: saline with Tween-80",110 % of control
same,T/C,"dose: 200.0 mg/kg/injection, schedule: Q01DX005 (ip), vehicle: saline with Tween-80",114 % of control
Cc1cccnc1I,T/C,[11],98 % of control
same,T/C,[12],99 % of control
same,T/C,[13],101 % of control
COc1c2c(cc3c1-c1ccc(OC)c(=O)cc1C(NC(C)=O)CC3)OCO2 (configuration not stated),T/C,"dose: 0.47 mg/kg/injection, schedule: Q01DX009 (ip), vehicle: distilled water + Tween-80",157 % of control
same,T/C,"dose: 0.94 mg/kg/injection, schedule: Q01DX009 (ip), vehicle: distilled water + Tween-80",166 % of control
same,T/C,"dose: 3.75 mg/kg/injection, schedule: Q01DX009 (ip), vehicle: distilled water + Tween-80",155 % of control
same,T/C,"dose: 7.5 mg/kg/injection, schedule: Q01DX009 (ip), vehicle: distilled water + Tween-80",161 % of control
CC(=O)OCc1ccc(Cl)c(Cl)c1,T/C,[8],100 % of control
same,T/C,[9],100 % of control
same,T/C,[10],104 % of control
O=C(NC(CCS(=O)(=O)NCCCl)C(=O)OCc1ccccc1)OCc1ccccc1 (configuration not stated),T/C,"dose: 12.5 mg/kg/injection, schedule: Q01DX009 (ip), vehicle: other",104 % of control
same,T/C,"dose: 25.0 mg/kg/injection, schedule: Q01DX009 (ip), vehicle: other",90 % of control
same,T/C,"dose: 50.0 mg/kg/injection, schedule: Q01DX009 (ip), vehicle: other",105 % of control
same,T/C,"dose: 100.0 mg/kg/injection, schedule: Q01DX009 (ip), vehicle: other",103 % of control
same,T/C,"dose: 200.0 mg/kg/injection, schedule: Q01DX009 (ip), vehicle: other",91 % of control
CN1C(=O)C2C(C1=O)[C@H]1c3ccccc3C=CN1[C@@H]2C(=O)c1ccccc1 (some centres not stated),T/C,[11],93 % of control
same,T/C,[12],90 % of control
same,T/C,[13],90 % of control
Cc1ccc(S(=O)(=O)C23N=NC(C)(C)C2N=NC3(C)C)cc1 (configuration not stated),T/C,[2],101 % of control
same,T/C,[3],100 % of control
same,T/C,[4],98 % of control
